Results reported in patent EP4116414A1 (Centre National de la Recherche Scientifique, dated 2023).

T1: YjgC 6his-tagged in N-terminal (His-YjgC), Bacillus subtilis 168 (Bacillus subtilis 168, UniProt O34720 1-985)
T1 construct: Expressed from the yjgCD operon under a xylose inducible promoter in B. subtilis strain 4088 and purified on Ni-NTA; Carries Mo-bisPGD and Fe-S cofactors; also called 6his-YjgC; catalytic subunit of YjgCD; not shown: N-terminal 6-his tag followed by a TEV cleavage site
T1 sequence: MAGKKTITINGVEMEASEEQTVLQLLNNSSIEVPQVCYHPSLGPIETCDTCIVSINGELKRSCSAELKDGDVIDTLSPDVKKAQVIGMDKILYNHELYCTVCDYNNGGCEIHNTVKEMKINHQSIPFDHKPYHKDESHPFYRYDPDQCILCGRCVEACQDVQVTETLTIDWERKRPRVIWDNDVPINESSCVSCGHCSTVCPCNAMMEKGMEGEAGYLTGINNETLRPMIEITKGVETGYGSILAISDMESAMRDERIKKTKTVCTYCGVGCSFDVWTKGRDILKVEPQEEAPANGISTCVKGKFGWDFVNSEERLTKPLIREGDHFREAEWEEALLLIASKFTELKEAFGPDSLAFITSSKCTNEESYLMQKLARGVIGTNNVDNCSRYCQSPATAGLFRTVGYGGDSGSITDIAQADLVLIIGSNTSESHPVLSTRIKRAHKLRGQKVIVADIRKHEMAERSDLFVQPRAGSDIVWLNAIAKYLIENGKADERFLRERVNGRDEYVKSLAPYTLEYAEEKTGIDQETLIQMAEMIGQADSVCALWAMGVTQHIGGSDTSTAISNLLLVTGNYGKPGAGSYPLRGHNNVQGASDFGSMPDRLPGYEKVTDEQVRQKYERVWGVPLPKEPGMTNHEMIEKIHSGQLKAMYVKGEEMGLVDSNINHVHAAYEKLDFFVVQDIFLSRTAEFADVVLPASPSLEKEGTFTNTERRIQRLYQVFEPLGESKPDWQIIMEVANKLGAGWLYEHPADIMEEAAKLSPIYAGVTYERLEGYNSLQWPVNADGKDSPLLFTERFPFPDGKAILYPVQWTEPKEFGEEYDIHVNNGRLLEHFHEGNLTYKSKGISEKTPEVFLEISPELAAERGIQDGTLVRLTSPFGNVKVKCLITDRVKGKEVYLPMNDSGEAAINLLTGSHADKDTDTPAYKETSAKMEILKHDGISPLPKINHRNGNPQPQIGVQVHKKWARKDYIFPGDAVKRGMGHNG


Key:
[1] = molecular target: Bacillus subtilis 168 formate dehydrogenase YjgCD heterodimer, wild type (6his-YjgC, SEQ ID NO: 1; YjgD, SEQ ID NO: 3) (Bacillus subtilis, UniProt O34720); conditions: formate oxidation, benzyl viologen as artificial electron acceptor, 25 mM CHES pH 10, 25°C
Protocol: FDH activity was determined using an Avaspec-2048L spectrometer (Avantes), inside an anaerobic glovebox filled with an atmosphere of 100% N2. The experiments were carried out at room temperature (25°C) with stirring.
For formate::benzyl viologen OR measurements, the reduction of 17.5 mM benzyl viologen (BV) was monitored at 600 nm (ε600 nm BV^+ = 7.0945 mM^-1 cm^-1) in 25 mM CHES pH 10 after addition of 50 mM sodium formate. One unit of oxidizing activity is defined as the amount of FDH capable of oxidizing 1 µmol of formate par min per mg of enzyme.
First the yjgCD operon was expressed under the control of an inducible promoter and the YjgC protein to which a 6-histidine tag was added at the N-terminus was purified.

[2] = molecular target: T1, YjgC 6his-tagged in N-terminal …; experiment: Ni-NTA affinity purification of His-YjgC, Coomassie-stained SDS-PAGE

Row | binding result [2] | Molecule | Kcat ([1]; anaerobic, YjgCD heterodimer MW 132 kDa) | Km ([1]; read-out: KM formate, anaerobic (100% N2)) [mM]
1 | – | formate | 96,1 ± 4 s^-1 | 5.1
2 | binds | YjgD protein of Bacillus subtilis 168 (other, Untagged and co-expressed with His-YjgC from the yjgCD operon; Predicted monomeric mass 21.3 kDa; also called partner subunit of YjgCD) MAKAIKRIQKIEVTEEDQRKRDLREIEDALIDHKEAILETLHMLGHMNERGVLPLLRGLFGQGDKVLDILVKKADTEETANTLKNLLLLFGTLGMLDVKQLEPLILKVNAGVASAVEQKNSEEKTGYFDIIRSLKDPEINKSITLLFSFLKGMGQDTKELERTTQPPEHQKHHQEPREKRGMNKRD | – | –
